One data set deals with AML model (C1498 cells). Briefly: In vivo treatment of AML with adjuvant (chemo-immunotherapy). On the set-up: species or system C57BL/6J mice. To be noted: leukemia-bearing mice, up to 21 days post-tumor inoculation, DOX 5 mg/kg, MPLA 20 μg. As for the experimental part:
AML model was established by intravenous injection of 5×10^6 C1498 cells on day 0. On day 8 and day 15, saline, LNT cell+Adjuvant, free DOX and LNT cell/DOX+Adjuvant were administrated intravenously with DOX dose of 5 mg/kg and adjuvant (monophosphoryl lipid A, MPLA) 20 μg per mouse. Specifically, MPLA was intravenously injected 10 h post-injection of LNT cell or LNT cell/DOX. The bioluminescence images of mice were captured every 3 days. The exposure time was 2 min. On day 13, 400 μL blood was collected via the orbital vein. 200 μL blood was treated with ACK buffer and centrifuged at 800 g for 8 min to obtain pellets of white blood cells. After staining with BV421-CD3, PE-CD4 and APC-CD8, the samples were analyzed by flow cytometry. Another 200 μL blood in blood serum collection tubes (BD Microtainer 365967) was centrifuged at 3000 rpm for 10 min. The upper serum was detected with the following ELISA kits: IFN-γ (BioLegend 430804) and TNF-α (BioLegend 430904).

With `COc1cccc2c1C(=O)c1c(O)c3c(c(O)c1C2=O)C[C@@](O)(C(=O)CO)C[C@@H]3O[C@H]1C[C@H](N)[C@H](O)[C@H](C)O1.Cl` [free DOX, Doxorubicin hydrochloride], the “IC50, in vitro cytotoxicity against C1498 cells” value with C1498 cells was 0.32 µg/mL. The “AML progression (bioluminescence of AML cancer cells)” value in the data set on AML model (C1498 cells) was “partially inhibited”.

These data come from patent US20230381314A1, “ATTENUATED CANCER CELLS AND METHODS RELATED THERETO” (priority 2020, published 2023).
